Data published in patent US7247444B2, “Use of interleukin-19 to treat cervical cancer” (ZymoGenetics, Inc., priority 2002, dated 2007).

Tested on: HeLa299
Assay: HeLa299 cytoxicity assay (MTT readout)
Type: cell-based
Details: HeLa299 cells, 72 hrs, complete growth media
Experimental: We tested IL-19 in a HeLa299 cytoxicity assay to measure the ability of IL-19 to prevent cells from growing during normal growth conditions. We used MTT reagent (Promega, Madison, USA) as our detection and readout for this cell inhibition assay. Procedure of a cytoxicity assay: • Day 1—Plate cells out in complete growth media (with serum) at 5000 cells/well in a 96 well format and let them incubate overnight at 37 degrees and 5% CO2. • Day 2—Dump off media and add a dose response of appropriate ligands in complete growth media (IL-19 at 10, 100, and 1000 ng/ml.), along with a positive control retinoic acid (100 uM) in complete growth media, while leaving some wells in complete growth media as controls of how the cells normally grow under normal conditions. Put the cells in incubator and let the assay go for 72 hrs. • Day 5—Add 15 ul/well of MTT reagent, let cells inc. for 4 hrs., then add 100 ul of stop solution, let cells inc. for an additional 1 hr., then read the plate on a multilabel counter (Victor2, PerkinElmer Life Sciences Inc., Boston). The MTT protocol will give you two readings, one at a 650 wavelength (background) and one at a 572 wavelength. Subtract the 650 reading from the 572 reading to get your actual output. These numbers are averaged and converted to a % inhibition value.

Molecule | inhibition at 100 µM (retinoic acid 100 uM) [%] | maximal inhibition of growth (IL-19 dose response 10, 100, and 1000 ng/ml) [%]
CC1=C(/C=C/C(C)=C/C=C/C(C)=C/C(=O)O)C(C)(C)CCC1 [Retnoic Acid, retinoic acid] | 53 | –
IL-19: interleukin-19 polypeptide, SEQ ID NO:2; mature secreted form from amino acid 23 (His) to 177 (Ala) (protein, listed as Homo sapiens) MKLQCVSLWLLGTILILCSVDNHGLRRCLISTDMHHIEESFQEIKRAIQAKDTFPNVTILSTLETLQIIKPLDVCCVTKNLLAFYVDRVFKDHQEPNPKILRKISSIANSFLYMQKTLRQCQEQRQCHCRQEATNATRVIHDNYDQLEVHAAAIKSLGELDVFLAWINKNHEVMSSA | – | 38
